Experiment: solvent given as SMILES

## CC(=O)[B-]1(C(C)=O)OC(c2ccccc2)=CC(c2ccccc2)=[O+]1
In CC#N
  emission maximum: 400 nm
In ClC(Cl)(Cl)Cl
  emission maximum: 402 nm

## Fc1ccc(N(c2ccc(F)cc2)c2ccc3c4cccc5c(N(c6ccc(F)cc6)c6ccc(F)cc6)ccc(c6cccc2c63)c54)cc1
In C1CCCCC1
  emission maximum: 529 nm
In C1CCOC1
  emission maximum: 544 nm
In CC#N
  emission maximum: 548 nm
In Cc1ccccc1
  emission maximum: 540 nm
In ClCCl
  emission maximum: 546 nm

## Cc1nnc(-c2cc(-c3nnc(C)o3)c(-n3c4ccccc4c4ccccc43)cc2-n2c3ccccc3c3ccccc32)o1
In Cc1ccccc1
  emission maximum: 444 nm
In O=P(c1ccccc1)(c1ccccc1)c1ccccc1Oc1ccccc1P(=O)(c1ccccc1)c1ccccc1
  emission maximum: 448 nm

## c1ccc(-c2nn(-c3ccccc3)c3nc4ccccc4cc23)cc1
In C1CCCCC1
  emission maximum: 443.66 nm
In C1CCOC1
  emission maximum: 467.73 nm
In CC#N
  emission maximum: 478.01 nm
In CC(C)=O
  emission maximum: 472.59 nm
In CCCCCl
  emission maximum: 462.96 nm
In CCCCOCCCC
  emission maximum: 454.96 nm
In CN(C)C=O
  emission maximum: 476.64 nm

## CC1(C)Nc2cc3nc4cc(F)c(F)cc4nc3cc2N1
In CCO
  emission maximum: 496 nm

## Cc1ccc(C2=C3C=CC(Cl)=[N+]3[B-](F)(F)n3c(Cl)ccc32)cc1
In C1CCCCC1
  emission maximum: 525 nm
In C1CCOC1
  emission maximum: 523 nm
In CC#N
  emission maximum: 520 nm
In CCOC(C)=O
  emission maximum: 521 nm
In CO
  emission maximum: 519 nm
In Cc1ccccc1
  emission maximum: 529 nm
In ClC(Cl)Cl
  emission maximum: 526 nm

## O=S(=O)(c1ccccc1)c1ccc(-n2c3ccccc3c3c2c2ccccc2n3-c2ccccc2)cc1
In Cc1ccccc1
  emission maximum: 476 nm

## CCCCCCCCN1C(=O)c2ccc3c4c(-c5ccc6c(c5)c5ccccc5n6-c5ccccc5)cc5c6c(cc(-c7ccc8c(c7)c7ccccc7n8-c7ccccc7)c(c7ccc(c2c37)C1=O)c64)C(=O)N(CCCCCCCC)C5=O
In ClC(Cl)Cl
  emission maximum: 663 nm

## C(=C\c1ccccc1/C=C/c1c2ccccc2cc2ccccc12)/c1ccncc1
In C1CCOC1
  emission maximum: 498 nm

## CCC1=C(C)C2=C(C)c3c(I)c(I)cn3[B-](F)(F)[N+]2=C1C
In C1CCCCC1
  emission maximum: 538.5 nm
In CC(C)=O
  emission maximum: 533 nm
In CCO
  emission maximum: 534 nm
In CCOC(C)=O
  emission maximum: 533 nm
In CO
  emission maximum: 533.5 nm
In OCC(F)(F)F
  emission maximum: 530.5 nm

## OB(O)c1ccc(-c2ccc(N(c3ccccc3)c3ccccc3)cc2)cc1
In C1CCCCC1
  emission maximum: 384 nm
In C1CCOC1
  emission maximum: 410 nm
In CCO
  emission maximum: 422.4 nm
In CCOCC
  emission maximum: 398 nm
In CO
  emission maximum: 432 nm

## F[Si](c1c2ccccc2cc2ccccc12)(c1c2ccccc2cc2ccccc12)c1c2ccccc2cc2ccccc12
In C1CCOC1
  emission maximum: 416 nm
In ClC(Cl)Cl
  emission maximum: 434 nm

## O=C1/C(=C\c2ccc3oc4ccccc4c3c2)S(=O)(=O)c2ccccc21
In C1CCOC1
  emission maximum: 437 nm
In C1COCCO1
  emission maximum: 436 nm
In CC#N
  emission maximum: 480 nm
In CC(C)=O
  emission maximum: 458 nm
In CCOC(C)=O
  emission maximum: 429 nm
In CN(C)C=O
  emission maximum: 445 nm
In CO
  emission maximum: 439 nm
In CS(C)=O
  emission maximum: 449 nm
In Cc1ccccc1
  emission maximum: 430 nm
In ClC(Cl)Cl
  emission maximum: 441 nm
In ClCCl
  emission maximum: 438 nm

## CS1(C)C(/C=C/C2=C(c3ccc(C(=O)O)cc3)C(=C/C=C3/N(CCCCS(=O)(=O)[O-])c4ccccc4S3(C)C)/CCC2)=[N+](CCCCS(=O)(=O)[O-])c2ccccc21
In CO
  emission maximum: 813 nm

## CCc1ccc(C2=[N+]3C(=Cc4c5ccc(OC)cc5c(-c5ccc(CC)s5)n4[B-]3(F)F)c3ccc(OC)cc32)s1
In ClCCl
  emission maximum: 780 nm

## CN1CCN(c2cccc(/C=C/c3ncc(-c4ccc(OCc5ccccc5)c(OCc5ccccc5)c4)o3)c2)CC1
In ClCCl
  emission maximum: 465 nm

## CCOC(=O)CCCCCn1c2ccccc2c(=O)c2cc3c(cc21)c(=O)c1cc(I)ccc1n3CCCCCC(=O)OCC
In CO
  emission maximum: 558 nm

## CCc1c(C)c2n(c1C)[B-](F)(F)[N+]1=C(C=C3C=Cc4ccccc43)C=CC1=C2C
In C1CCCCC1
  emission maximum: 596 nm

## Cc1ccc(C2=CC(c3ccc(C)cc3)=[N+]3C2=Nc2c(-c4ccc(C)cc4)cc(-c4ccc(C)cc4)n2[B-]3(F)F)cc1
In ClC(Cl)Cl
  emission maximum: 697 nm

## CC1(C)c2ccccc2N(c2ccc(-c3ncccn3)cc2)c2ccccc21
In Cc1ccccc1
  emission maximum: 448 nm
In O=P(c1ccccc1)(c1ccccc1)c1ccc2oc3ccc(P(=O)(c4ccccc4)c4ccccc4)cc3c2c1
  emission maximum: 457 nm

## COc1cc(OC)cc(C2=C3C(C)=C(I)C(/C=C/c4ccsc4)=[N+]3[B-](F)(F)n3c(/C=C/c4ccsc4)c(I)c(C)c32)c1
In C1CCOC1
  emission maximum: 680 nm
In CS(C)=O
  emission maximum: 692 nm
In ClCCl
  emission maximum: 682 nm

## Cc1nc2c(ccc3c2sc(/C=C/C=C/c2ccc(N(C)C)cc2)[n+]3C)s1
In CO
  emission maximum: 700 nm
In ClC(Cl)Cl
  emission maximum: 696 nm

## CC(C)[Si](C#Cc1c2ccccc2c(C#C[Si](C(C)C)(C(C)C)C(C)C)c2nc3c(ccc4ccccc43)nc12)(C(C)C)C(C)C
In CCCCCC
  emission maximum: 553 nm

## CCN(CC)c1ccc2cc3ccc(=[N+](CC)CC)cc-3oc2c1
In CC#N
  emission maximum: 549 nm
In CCO
  emission maximum: 557 nm
In CN(C)C=O
  emission maximum: 532 nm
In O
  emission maximum: 555 nm

## Clc1nc(Nc2ccccc2)nc(Nc2ccc3cc4ccccc4cc3c2)n1
In C1COCCO1
  emission maximum: 436 nm
In CC#N
  emission maximum: 432 nm
In CCCCOCCCC
  emission maximum: 430 nm
In CCOC(C)=O
  emission maximum: 433 nm

## CC(=C(C#Cc1ccccc1)C#Cc1ccccc1)c1ccc(C(C)=C(C#Cc2ccccc2)C#Cc2ccccc2)cc1
In ClC(Cl)Cl
  emission maximum: 454 nm

## Cc1nc(-c2ccccc2O)n2c1CCCC2
In ClCCl
  emission maximum: 452 nm

## Cc1ccc(-n2c(-c3ccc(N(c4ccc(-c5ccc(N(c6ccc(-c7nc8c9ccccc9c9ccccc9c8n7-c7ccc(C)cc7)cc6)c6ccc(-c7nc8c9ccccc9c9ccccc9c8n7-c7ccc(C)cc7)cc6)cc5)cc4)c4ccc(-c5nc6c7ccccc7c7ccccc7c6n5-c5ccc(C)cc5)cc4)cc3)nc3c4ccccc4c4ccccc4c32)cc1
In ClCCl
  emission maximum: 435 nm

## CC(C)(C)c1ccc2c(c1)c1cc(C(C)(C)C)ccc1n2-c1ccc(C#Cc2ccc3c4ccc(C#Cc5ccc(-n6c7ccc(C(C)(C)C)cc7c7cc(C(C)(C)C)ccc76)cc5)cc4n(-c4ccc(C(F)(F)F)cc4)c3c2)cc1
In ClCCl
  emission maximum: 431 nm

## Cc1cccc(-c2[nH]c(=O)n3c2-c2ccccc2C3=O)c1O
In CC#N
  emission maximum: 480 nm
In CO
  emission maximum: 496 nm
In ClCCl
  emission maximum: 473 nm

## C=C(C)C(CN1C(=O)c2cccc3c2c(cc2nc(C)oc23)C1=O)OO (stereo not drawn)
In CCO
  emission maximum: 412 nm

## N#Cc1c(N2CCCCC2)cc(-c2ccc3ccc4cccc5ccc2c3c45)c2c1Cc1ccccc1-2
In C1CCOC1
  emission maximum: 481 nm

## COc1ccc(-c2sc3c(-c4ccc(OC)cc4)c4n(c3c2-c2ccc(OC)cc2)[B-](F)(F)[N+]2=Cc3c(-c5ccc(OC)cc5)c5sc(-c6ccc(OC)cc6)c(-c6ccc(OC)cc6)c5n3[B-](F)(F)[N+]2=C4)cc1
In CC#N
  emission maximum: 641 nm
In CCCCCC
  emission maximum: 630 nm
In CN(C)C=O
  emission maximum: 654 nm
In Cc1ccccc1
  emission maximum: 649 nm
In ClCCl
  emission maximum: 648 nm

## Cc1c(COC(=O)c2ccccc2Cl)n2c(OCC(=O)c3ccccc3Cl)c(C)c(=O)n2c1=O
In CCO
  emission maximum: 459 nm

## CCCCCCn1c2cc(/C=C/c3cccs3)ccc2c2ccc(/C=C/c3cccs3)cc21
In ClC(Cl)Cl
  emission maximum: 427.35 nm

## O=S(=O)([O-])c1cc([O-])c2ccc3c(S(=O)(=O)[O-])cc(S(=O)(=O)[O-])c4ccc1c2c34
In CC#N
  emission maximum: 513 nm
In CC(C)O
  emission maximum: 511.01 nm
In CCO
  emission maximum: 510 nm
In CO
  emission maximum: 509.01 nm
In NC=O
  emission maximum: 519 nm
In O
  emission maximum: 511.01 nm
In OC(C(F)(F)F)C(F)(F)F
  emission maximum: 506 nm
In OCC(F)(F)F
  emission maximum: 508 nm
In OCCO
  emission maximum: 512.01 nm
